# Measured values published in the supplement of paper PMC10307832.
# How the values were obtained:
# Experiment in all cases: relative viability (nuclei count vs DMSO), 5 days (fraction); higher = more cells survive
# [1] = test system: NCI-H358
# Method in brief: (§1)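 Lung cancer cell lines in 1536-well plates were dosed by pin tool the day after seeding, either with one drug alone or with a fixed anchor-drug dose plus five library-drug doses (not always all listed) in √10 steps. After 5 days, cells were fixed and their nuclei stained in one step (final 0.05% Triton X-100, 1% formaldehyde, 1 ug/ml Hoechst), then counted on 4× images. Relative viability is the nuclei count in treated wells divided by that in vehicle wells. Values are medians of duplicate plates.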
# [2] = test system: HCC-44
# Method in brief: as §1
# [3] = test system: NCI-H650
# Method in brief: as §1
# [4] = test system: NCI-H596
# Method in brief: as §1
# [5] = test system: NCI-H23
# Method in brief: as §1
# [6] = test system: A-427
# Method in brief: as §1
# [7] = test system: COR-L23
# Method in brief: as §1
# [8] = test system: NCI-H1792
# Method in brief: as §1
# [9] = test system: NCI-H1437
# Method in brief: as §1
# [10] = test system: 201T
# Method in brief: as §1
# [11] = test system: NCI-H1650
# Method in brief: as §1
# [12] = test system: SK-MES-1
# Method in brief: as §1
# [13] = test system: NCI-H1975
# Method in brief: as §1
# [14] = test system: HCC-827
# Method in brief: as §1
# [15] = test system: BEN
# Method in brief: as §1
# [16] = test system: NCI-H441
# Method in brief: as §1
# [17] = test system: EKVX
# Method in brief: as §1
# [18] = test system: HARA
# Method in brief: as §1
# [19] = test system: HCC-15
# Method in brief: as §1
# [20] = test system: NCI-H838
# Method in brief: as §1
compound,measurement,setting,value
Cc1sc2c(c1C)C(c1ccc(Cl)cc1)=N[C@@H](CC(=O)OC(C)(C)C)c1nnc(C)n1-2 [JQ1] + CS(=O)(=O)N1CCN(Cc2cc3nc(-c4cccc5[nH]ncc45)nc(N4CCOCC4)c3s2)CC1 [Pictilisib] (partner 1 µM),relative viability,[1]; first compound 0.04 µM,0.329
same,relative viability,[1]; first compound 0.1265 µM,0.431
same,relative viability,[1]; first compound 0.4 µM,0.376
same,relative viability,[1]; first compound 1.265 µM,0.386
same,relative viability,[1]; first compound 4 µM,0.336
same,relative viability,[2]; first compound 0.04 µM,0.623
same,relative viability,[2]; first compound 0.1265 µM,0.498
same,relative viability,[2]; first compound 0.4 µM,0.532
same,relative viability,[2]; first compound 1.265 µM,0.294
same,relative viability,[2]; first compound 4 µM,0.213
same,relative viability,[3]; first compound 0.04 µM,0.746
same,relative viability,[3]; first compound 0.1265 µM,0.654
same,relative viability,[3]; first compound 0.4 µM,0.499
same,relative viability,[3]; first compound 1.265 µM,0.283
same,relative viability,[3]; first compound 4 µM,0.273
same,relative viability,[4]; first compound 0.04 µM,0.412
same,relative viability,[4]; first compound 0.1265 µM,0.395
same,relative viability,[4]; first compound 0.4 µM,0.477
same,relative viability,[4]; first compound 1.265 µM,0.365
same,relative viability,[4]; first compound 4 µM,0.293
same,relative viability,[5]; first compound 0.04 µM,0.46
same,relative viability,[5]; first compound 0.1265 µM,0.453
same,relative viability,[5]; first compound 0.4 µM,0.447
same,relative viability,[5]; first compound 1.265 µM,0.162
same,relative viability,[5]; first compound 4 µM,0.183
same,relative viability,[6]; first compound 0.04 µM,0.81
same,relative viability,[6]; first compound 0.1265 µM,0.748
same,relative viability,[6]; first compound 0.4 µM,0.674
same,relative viability,[6]; first compound 1.265 µM,0.511
same,relative viability,[6]; first compound 4 µM,0.465
same,relative viability,[7]; first compound 0.04 µM,0.805
same,relative viability,[7]; first compound 0.1265 µM,0.692
same,relative viability,[7]; first compound 0.4 µM,0.524
same,relative viability,[7]; first compound 1.265 µM,0.3
same,relative viability,[7]; first compound 4 µM,0.202
same,relative viability,[8]; first compound 0.04 µM,0.273
same,relative viability,[8]; first compound 0.4 µM,0.31
same,relative viability,[8]; first compound 1.265 µM,0.188
same,relative viability,[8]; first compound 4 µM,0.174
same,relative viability,[9]; first compound 0.04 µM,0.405
same,relative viability,[9]; first compound 0.1265 µM,0.237
same,relative viability,[9]; first compound 0.4 µM,0.233
same,relative viability,[9]; first compound 1.265 µM,0.157
same,relative viability,[9]; first compound 4 µM,0.168
same,relative viability,[10]; first compound 0.04 µM,0.656
same,relative viability,[10]; first compound 0.1265 µM,0.644
same,relative viability,[10]; first compound 0.4 µM,0.519
same,relative viability,[10]; first compound 1.265 µM,0.474
same,relative viability,[10]; first compound 4 µM,0.399
same,relative viability,[11]; first compound 0.04 µM,0.625
same,relative viability,[11]; first compound 0.1265 µM,0.445
same,relative viability,[11]; first compound 0.4 µM,0.286
same,relative viability,[11]; first compound 1.265 µM,0.122
same,relative viability,[11]; first compound 4 µM,0.169
same,relative viability,[12]; first compound 0.04 µM,0.351
same,relative viability,[12]; first compound 0.1265 µM,0.299
same,relative viability,[12]; first compound 0.4 µM,0.298
same,relative viability,[12]; first compound 1.265 µM,0.179
same,relative viability,[12]; first compound 4 µM,0.202
same,relative viability,[13]; first compound 0.04 µM,0.298
same,relative viability,[13]; first compound 0.1265 µM,0.246
same,relative viability,[13]; first compound 0.4 µM,0.27
same,relative viability,[13]; first compound 1.265 µM,0.214
same,relative viability,[13]; first compound 4 µM,0.204
same,relative viability,[14]; first compound 0.04 µM,1.06
same,relative viability,[14]; first compound 0.4 µM,0.544
same,relative viability,[14]; first compound 1.265 µM,0.911
same,relative viability,[14]; first compound 4 µM,0.752
same,relative viability,[15]; first compound 0.04 µM,0.481
same,relative viability,[15]; first compound 0.1265 µM,0.486
same,relative viability,[15]; first compound 0.4 µM,0.461
same,relative viability,[15]; first compound 1.265 µM,0.272
same,relative viability,[15]; first compound 4 µM,0.205
same,relative viability,[16]; first compound 0.04 µM,0.475
same,relative viability,[16]; first compound 0.1265 µM,0.561
same,relative viability,[16]; first compound 0.4 µM,0.38
same,relative viability,[16]; first compound 1.265 µM,0.234
same,relative viability,[16]; first compound 4 µM,0.195
same,relative viability,[17]; first compound 0.04 µM,0.442
same,relative viability,[17]; first compound 0.1265 µM,0.464
same,relative viability,[17]; first compound 0.4 µM,0.459
same,relative viability,[17]; first compound 1.265 µM,0.359
same,relative viability,[17]; first compound 4 µM,0.335
same,relative viability,[18]; first compound 0.04 µM,0.505
same,relative viability,[18]; first compound 0.1265 µM,0.224
same,relative viability,[18]; first compound 0.4 µM,0.379
same,relative viability,[18]; first compound 1.265 µM,0.177
same,relative viability,[18]; first compound 4 µM,0.0809
same,relative viability,[19]; first compound 0.04 µM,0.67
same,relative viability,[19]; first compound 0.4 µM,0.663
same,relative viability,[19]; first compound 1.265 µM,0.366
same,relative viability,[19]; first compound 4 µM,0.343
same,relative viability,[20]; first compound 0.04 µM,0.397
same,relative viability,[20]; first compound 0.1265 µM,0.3
same,relative viability,[20]; first compound 0.4 µM,0.319
same,relative viability,[20]; first compound 1.265 µM,0.208
same,relative viability,[20]; first compound 4 µM,0.232
